This note sets out measurements from patent publication US20200199523A1, “MEDIA FOR MICROORGANISM CULTURE AND RELATED COMPOSITIONS AND METHODS” (Massachusetts Institute of Technology, priority 2017, published 2020).

The test system of one experiment is wildtype Pichia pastoris. Put plainly: Batch cultivation growth (optical density, growth rate) in microtiter plates and shake flasks. The class given is cell-based, Komagataella phaffii. To be noted: for Effect on growth rate of reducing the element's concentration by 50%: basal salts medium (FIG. 2A); for Effect of supplement on growth rate: nutrient screening in defined media; for Growth rate μ in supplemented defined media: nutrient screening, supplement added to defined media. The protocol:
Batch cultivations were conducted at two scales: microtiter plates and shake flasks. Microtiter plates with 24 wells and pyramidal bottoms were purchased from Axygen. Each well had 10 mL total volume and cultivations used a 3 mL working volume. Plates were incubated in a Liconic LPX44 shaker at 600 rpm. Temperature was not controlled but remained at room temperature, between 21 and 24° C. […] The shake rate was set to 300 rpm and the temperature was controlled at 25° C. […]
All chemicals used in media formulations were purchased from Sigma. Complex media was purchased from Teknova. […] Glycerol was added at a starting concentration of 1% by volume. Media was autoclaved and filtered through a […] bottletop filter before use. PTM1 salts were added after filtration to avoid loss of trace elements through precipitation.
Biomass was measured by optical density. Shake flask samples were measured on a Genesys 10 Bio spectrophotometer. Microtiter plate samples were measured using a Tecan Infinite M200 Pro plate reader and converted to the same scale as the spectrophotometer samples using a calibration curve. Growth rates were calculated by linear regression between the natural logarithm of the optical density and the cultivation time in hours. The regression was run on time points during the exponential growth phase unless otherwise specified.

Experiment [1] relates to P. pastoris gene expression. Briefly: RNA-Seq gene expression and ssGSEA at stages of perfusion cultivation. The class given is cell-based, K. phaffii. Here is the method: To study gene expression under perfusion, seven cultivations were conducted (FIG. 14B). The production medium contained 1.5% v/v methanol. For four of the bioreactors (labeled 1, 3, 5A, 6A), the cultures were induced immediately after the DO spike. For the other three reactors (labeled 4, 5, 6), glycerol feed was maintained after the DO spike for 4 hours and then the cultures were induced with methanol. There were no significant differences between the biomass, hGH titers, or transcriptomic data between the two conditions (FIG. 15), so they were treated as biological replicates for RNA-Seq analysis.
RNA was isolated from samples taken at six time points during the cultivation (FIG. 14B). Samples were taken from all reactors after one day of exponential growth on glycerol (G1) and immediately after the DO spike (G2). […]
RNA was extracted using the Qiagen RNeasy kit (cat. no. 74104). […] All libraries were sequenced on the Illumina NextSeq platform to generate 75-nucleotide paired-end reads at a read depth of at least 3 million reads per sample. The reads were aligned to the previously reported genome sequence for this strain (Love et al., 2016) using RSEM version 1.2.15 with bowtie2 version 2.2.3. The reads were also aligned to the sequence for hGH using BWA (version 0.7.12). […]

Experiment [2] deals with K. phaffii strain modified to express human growth hormone (hGH). Briefly: Perfusion cultivation: biomass (wet cell weight), hGH titer, productivity. The experiment is classed as cell-based. The protocol:
Experiments were conducted using a K. phaffii strain modified to express human growth hormone (hGH) under the control of the AOX1 promoter. For biomass accumulation, cells were grown in medium containing per liter: 40 mL glycerol, 12 g KH2PO4, 4.7 g MgSO4.7H2O, 0.36 g CaCl2.2H2O, 4.96 g (NH4)2SO4, 1.46 g L-glutamine, 1.74 g L-arginine, 3.3 mL of vitamin solution, 10 mL of lipids solution, and 4.35 mL of PTM1 salts (Amresco J241). For protein production, cells were grown in medium containing per liter: 12 g KH2PO4, 4.7 g MgSO4.7H2O, 0.36 g CaCl2.2H2O, 13.21 g (NH4)2SO4, 2.92 g L-glutamine, 3.3 mL of vitamin solution, 10 mL of lipids solution, and 4.35 mL of PTM1 salts (Amresco J241). Both media were adjusted to pH 6.5 using 5M KOH. The vitamin solution consisted of per liter: 7.5 g myo-inositol, 0.3 g thiamine HCl, 0.3 g calcium pantothenate, 0.3 g nicotinic acid, 0.3 g pyroxidine HCl, 0.015 g biotin, and 0.06 g para-aminobenzoic acid. The lipids solution consisted of per liter: 2 mg arachidonic acid, 10 mg linoleic acid, 10 mg linolenic acid, 10 mg myristic acid, 10 mg oleic acid, 10 mg palmitic acid, 10 mg stearic acid, 2.2 g Tween-80, 70 mg tocopherol acetate, and 100 g of Pluronic F-68. All chemicals were purchased from Sigma. The medium was filtered before use.
Cultivations were conducted in 0.5 L Infors HT bioreactors adapted for operation in perfusion mode. Cultures were inoculated directly from a frozen cell stock into 0.44 L of medium. Cells were grown for approximately 32 hours in perfusion mode with medium containing glycerol fed at a rate of 0.5 mL/minute. […] The cultures were induced by switching the feed to production medium containing methanol, which was also fed at 0.5 mL/minute. Bioreactor temperature was automatically controlled at 25° C. The pH was controlled at 6.5 using 5M KOH.
For the studies of higher methanol feed rate, two cultivations were conducted. The production medium contained 15% v/v methanol. All other fermentation conditions were as described above.
Biomass was measured by wet cell weight. Five hundred microliters of sample were spun in a Costar Spin-X centrifuge filter tube for 10 minutes at 1500 g and the pellet was weighed. hGH concentrations in the supernatants were quantified by RPLC and by gel electrophoresis (Perkin Elmer GXII). Concentrations estimated by the two methods were highly consistent (slope=0.98, R^2=0.95).
Cell-specific productivity was calculated according to the following system of equations (Amos Lu, unpublished): […]
where qp is the cell-specific productivity, μ is the growth rate, F is the perfusion rate, X is the biomass concentration, and P is the protein titer.

Experiment [3] concerns P. pastoris strains expressing hGH, G-CSF, IFN. Briefly: Amino acid supplementation of defined media: recombinant protein expression (GXII, SDS-PAGE, ELISA). The experiment is classed as cell-based. To be noted: alone or with other amino acids, IFN (FIG. 10-13).
Experimental: Here, a study is presented of the impact of adding specific amino acids on recombinant protein titers. To uncover a general formulation, three P. pastoris strains were studied, each expressing a different heterologous protein.
Expression of three recombinant proteins, hGH, G-CSF, and IFN, by P. pastoris grown in media with different individual amino acids, 12.5 mM each. Protein concentrations measured by GXII, samples taken 24 hours after methanol induction (FIG. 10).
(FIG. 11). hGH expression by P. pastoris grown in media with different combinations of amino acids, each 12.5 mM total, based on initial individual amino acid screenings is shown. hGH concentrations were measured by GXII, samples taken 24 hours after methanol induction.
In FIG. 12, the effect of Asparagine, Glutamine, and Arginine on protein expression is examined. The starred media conditions are as follows; Glutamine, Arginine, Glutamine+Arginine (RDM), Asparagine, Glutamine+Asparagine, and all 20 amino acids. In all media conditions, total amino acid concentration is normalized to 25 mM.
hGH production was measured in media containing individual or combinations of amino acids. The total concentration in (mM) of amino acids was 12.5, 25, or 50 mM. The results were measured by ELISA, and each value is the average of three technical replicates.
The mark [4] stands for this setting: perfusion, 15% v/v vs 1.5% v/v methanol.

In the case of `S1SSSSSSS1` [sulfur], the “Effect on growth rate of reducing the element's concentration by 50%” value in the experiment with wildtype Pichia pastoris was “no significant effect”.

Turning to `CO` [methanol], the “Increase in expression of genes involved in methanol metabolism vs glycerol” value in experiment [1] (first 4 hours after induction) is 35 fold. In addition, the “Increase in expression of genes involved in methanol metabolism vs glycerol” value in experiment [1] (later in methanol feeding) is on record as 100 fold. The “Cell-specific productivity relative to low-feed case” value in experiment [2] (beginning of the cultivation (FIG. 23C)) is “double”. This molecule gave a Biomass concentration in experiment [2] (perfusion, 15% v/v methanol, day 6 of production) of 530 g/L WCW. For the same molecule, in experiment [2] (perfusion, 15% v/v methanol, end of the cultivation), the hGH titer is 2 g/L. In experiment [2] (setting [4]), the “Cell density relative to low-methanol feeding experiments” value is “over four times greater” and the “hGH titers relative to lower methanol feed rate” value is recorded as “over six times higher”. The Average growth rate in experiment [2] (perfusion, methanol feed rate increased by a factor of ten (15% v/v)) is 0.01 h⁻¹. Besides, the “Volumetric productivity relative to lower methanol feed” value in experiment [2] (perfusion, on average (FIG. 23D)) was 3-4 times.

On to `N` [ammonium], for which the “Effect on growth rate of reducing the element's concentration by 50%” value in the experiment on wildtype Pichia pastoris was “significantly improved the growth rate”. In the experiment with wildtype Pichia pastoris (basal salts medium (FIG. 2B)), the “Concentration at which it became limiting for growth” value worked out at 12.5 mM.

Regarding phosphate, the “Effect on growth rate of reducing the element's concentration by 50%” value in the experiment with wildtype Pichia pastoris is “no significant effect”.

As to `N=C(N)NCCC[C@H](N)C(=O)O` [Arginine], in experiment [3], the “Effect on protein production” value is “increases protein production”. In the experiment with wildtype Pichia pastoris, the “Effect of supplement on growth rate” value is recorded as “significant benefit” and the “Growth rate μ in supplemented defined media” value (“Growth rate μ” for short) was found to be 0.202 h⁻¹.

As for `OC[C@H]1O[C@H](O[C@H]2O[C@H](CO)[C@@H](O)[C@H](O)[C@H]2O)[C@H](O)[C@@H](O)[C@@H]1O` [Trehalose], the “Growth rate μ” value in the experiment on wildtype Pichia pastoris turned out to be 0.193 h⁻¹.

For `NC(=O)C[C@H](N)C(=O)O` [asparagine], the “Effect on protein production” value in experiment [3] is listed as “increases protein production”.

For the molecule `NC(=O)CC[C@H](N)C(=O)O` [Glutamine], the “Effect on protein production” value in experiment [3] is reported as “increases protein production”. For the same molecule, the “Growth rate μ” value in the experiment with wildtype Pichia pastoris turned out to be 0.217 h⁻¹.

Regarding `CC(O)C(=O)O` (stereo not shown) [Lactate], the “Growth rate μ” value in the experiment on wildtype Pichia pastoris is 0.186 h⁻¹.

`NCCCC[C@H](N)C(=O)O` [Lysine]: in the experiment with wildtype Pichia pastoris, the “Effect of supplement on growth rate” value is given as “did not” and the “Growth rate μ” value was 0.196 h⁻¹.

Regarding `C[C@H](N)C(=O)O` [Alanine], in the experiment on wildtype Pichia pastoris, the “Effect of supplement on growth rate” value is on record as “did not” and the “Growth rate μ” value was 0.195 h⁻¹.
